{"source": "ChEMBL document CHEMBL1201862", "about": "“PubChem BioAssay data set” (2004)", "type_in_all_cases": "functional", "key": {"[1]": {"test": "Luminescence Cell-Based Dose Confirmation HTS to Identify Activators of 5'UTR Stem-Loop Driven Alpha-Synuclein mRNA Translation in H4 Neuroglioblastoma Cells. [Related pubchem assays: 1829 (Project Summary), 1814 (Primary HTS)]"}, "[2]": {"test": "Luminescence Cell-Based Dose Response HTS to Identify Activators of Luciferase Translation or Activity in H4 […] Cells. [Related pubchem assays: 1829 (Project Summary), 1814 (Primary HTS)]"}, "H4": {"test_system": "H4", "test": "Luminescence Cell-Based Dose Response HTS to Identify Activators of 5'UTR Stem-Loop Driven Prion Protein mRNA Translation in H4 Neuroglioblastoma Cells. [Related pubchem assays: 1829 (Project Summary), 1814 (Primary HTS)]", "details": "Homo sapiens"}, "[3]": {"molecular_target": "DNA dC->dU-editing enzyme APOBEC-3A (Homo sapiens, UniProt P31941)", "sequence (P31941 whole entry)": "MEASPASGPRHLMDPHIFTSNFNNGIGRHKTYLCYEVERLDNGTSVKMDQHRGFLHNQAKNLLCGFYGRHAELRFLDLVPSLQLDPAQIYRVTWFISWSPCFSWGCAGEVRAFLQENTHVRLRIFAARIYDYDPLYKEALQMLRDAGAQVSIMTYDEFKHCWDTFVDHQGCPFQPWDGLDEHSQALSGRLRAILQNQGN", "test": "Dose Response confirmation of small molecule APOBEC3A DNA Deaminase Inhibitors via a fluorescence-based single-stranded DNA deaminase assay. [Related pubchem assays (depositor defined):AID493011, AID493024]"}, "[4]": {"molecular_target": "DNA dC->dU-editing enzyme APOBEC-3G (Homo sapiens, UniProt Q9HC16)"}, "SUMO E1/E2": {"molecular_target": "SUMO E1/E2 (Homo sapiens, UniProt P63279+Q9UBE0+Q9UBT2)", "sequence (Q9UBE0 whole entry)": "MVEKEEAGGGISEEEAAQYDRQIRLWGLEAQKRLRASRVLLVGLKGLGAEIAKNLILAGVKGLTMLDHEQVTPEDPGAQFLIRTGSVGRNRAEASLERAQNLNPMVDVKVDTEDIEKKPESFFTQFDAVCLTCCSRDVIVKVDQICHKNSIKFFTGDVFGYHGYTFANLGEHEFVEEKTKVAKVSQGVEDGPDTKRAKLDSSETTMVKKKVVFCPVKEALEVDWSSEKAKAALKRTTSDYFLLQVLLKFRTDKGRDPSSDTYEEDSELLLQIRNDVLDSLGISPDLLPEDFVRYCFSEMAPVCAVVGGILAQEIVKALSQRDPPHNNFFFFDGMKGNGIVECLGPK", "sequence (Q9UBT2 whole entry)": "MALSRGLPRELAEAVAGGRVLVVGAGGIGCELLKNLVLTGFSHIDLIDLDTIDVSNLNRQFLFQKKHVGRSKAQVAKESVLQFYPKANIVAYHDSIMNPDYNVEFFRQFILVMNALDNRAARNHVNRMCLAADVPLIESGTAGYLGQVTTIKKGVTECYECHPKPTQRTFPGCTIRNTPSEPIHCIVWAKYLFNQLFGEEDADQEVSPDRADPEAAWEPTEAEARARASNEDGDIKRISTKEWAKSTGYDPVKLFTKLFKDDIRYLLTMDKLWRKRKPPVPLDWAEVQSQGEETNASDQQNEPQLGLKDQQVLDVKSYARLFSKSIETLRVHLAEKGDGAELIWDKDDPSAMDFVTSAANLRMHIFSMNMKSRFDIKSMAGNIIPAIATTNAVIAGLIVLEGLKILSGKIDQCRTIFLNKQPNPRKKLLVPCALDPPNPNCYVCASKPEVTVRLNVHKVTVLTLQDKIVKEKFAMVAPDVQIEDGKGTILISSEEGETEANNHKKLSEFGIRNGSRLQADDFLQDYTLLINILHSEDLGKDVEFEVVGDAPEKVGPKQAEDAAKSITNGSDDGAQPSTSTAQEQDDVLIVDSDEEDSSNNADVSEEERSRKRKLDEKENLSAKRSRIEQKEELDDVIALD", "sequence (P63279 whole entry)": "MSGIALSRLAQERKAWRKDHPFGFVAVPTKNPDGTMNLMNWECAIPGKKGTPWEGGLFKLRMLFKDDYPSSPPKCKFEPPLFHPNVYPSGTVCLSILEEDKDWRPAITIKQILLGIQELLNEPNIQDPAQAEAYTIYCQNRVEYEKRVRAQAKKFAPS", "test": "SAR analysis of SUMOylation using HTRF in an in-Vitro dose response assay. [Related pubchem assays (depositor defined):AID2006, AID2011, AID2018, AID2069, AID2658]"}, "[5]": {"molecular_target": "T1, Voltage-gated N-type calcium channel alpha-1B subunit/Amyloid beta A4 precursor protein-binding family A member 1 (Homo sapiens, UniProt Q00975+Q02410)", "T1 sequence (Q00975 whole entry)": "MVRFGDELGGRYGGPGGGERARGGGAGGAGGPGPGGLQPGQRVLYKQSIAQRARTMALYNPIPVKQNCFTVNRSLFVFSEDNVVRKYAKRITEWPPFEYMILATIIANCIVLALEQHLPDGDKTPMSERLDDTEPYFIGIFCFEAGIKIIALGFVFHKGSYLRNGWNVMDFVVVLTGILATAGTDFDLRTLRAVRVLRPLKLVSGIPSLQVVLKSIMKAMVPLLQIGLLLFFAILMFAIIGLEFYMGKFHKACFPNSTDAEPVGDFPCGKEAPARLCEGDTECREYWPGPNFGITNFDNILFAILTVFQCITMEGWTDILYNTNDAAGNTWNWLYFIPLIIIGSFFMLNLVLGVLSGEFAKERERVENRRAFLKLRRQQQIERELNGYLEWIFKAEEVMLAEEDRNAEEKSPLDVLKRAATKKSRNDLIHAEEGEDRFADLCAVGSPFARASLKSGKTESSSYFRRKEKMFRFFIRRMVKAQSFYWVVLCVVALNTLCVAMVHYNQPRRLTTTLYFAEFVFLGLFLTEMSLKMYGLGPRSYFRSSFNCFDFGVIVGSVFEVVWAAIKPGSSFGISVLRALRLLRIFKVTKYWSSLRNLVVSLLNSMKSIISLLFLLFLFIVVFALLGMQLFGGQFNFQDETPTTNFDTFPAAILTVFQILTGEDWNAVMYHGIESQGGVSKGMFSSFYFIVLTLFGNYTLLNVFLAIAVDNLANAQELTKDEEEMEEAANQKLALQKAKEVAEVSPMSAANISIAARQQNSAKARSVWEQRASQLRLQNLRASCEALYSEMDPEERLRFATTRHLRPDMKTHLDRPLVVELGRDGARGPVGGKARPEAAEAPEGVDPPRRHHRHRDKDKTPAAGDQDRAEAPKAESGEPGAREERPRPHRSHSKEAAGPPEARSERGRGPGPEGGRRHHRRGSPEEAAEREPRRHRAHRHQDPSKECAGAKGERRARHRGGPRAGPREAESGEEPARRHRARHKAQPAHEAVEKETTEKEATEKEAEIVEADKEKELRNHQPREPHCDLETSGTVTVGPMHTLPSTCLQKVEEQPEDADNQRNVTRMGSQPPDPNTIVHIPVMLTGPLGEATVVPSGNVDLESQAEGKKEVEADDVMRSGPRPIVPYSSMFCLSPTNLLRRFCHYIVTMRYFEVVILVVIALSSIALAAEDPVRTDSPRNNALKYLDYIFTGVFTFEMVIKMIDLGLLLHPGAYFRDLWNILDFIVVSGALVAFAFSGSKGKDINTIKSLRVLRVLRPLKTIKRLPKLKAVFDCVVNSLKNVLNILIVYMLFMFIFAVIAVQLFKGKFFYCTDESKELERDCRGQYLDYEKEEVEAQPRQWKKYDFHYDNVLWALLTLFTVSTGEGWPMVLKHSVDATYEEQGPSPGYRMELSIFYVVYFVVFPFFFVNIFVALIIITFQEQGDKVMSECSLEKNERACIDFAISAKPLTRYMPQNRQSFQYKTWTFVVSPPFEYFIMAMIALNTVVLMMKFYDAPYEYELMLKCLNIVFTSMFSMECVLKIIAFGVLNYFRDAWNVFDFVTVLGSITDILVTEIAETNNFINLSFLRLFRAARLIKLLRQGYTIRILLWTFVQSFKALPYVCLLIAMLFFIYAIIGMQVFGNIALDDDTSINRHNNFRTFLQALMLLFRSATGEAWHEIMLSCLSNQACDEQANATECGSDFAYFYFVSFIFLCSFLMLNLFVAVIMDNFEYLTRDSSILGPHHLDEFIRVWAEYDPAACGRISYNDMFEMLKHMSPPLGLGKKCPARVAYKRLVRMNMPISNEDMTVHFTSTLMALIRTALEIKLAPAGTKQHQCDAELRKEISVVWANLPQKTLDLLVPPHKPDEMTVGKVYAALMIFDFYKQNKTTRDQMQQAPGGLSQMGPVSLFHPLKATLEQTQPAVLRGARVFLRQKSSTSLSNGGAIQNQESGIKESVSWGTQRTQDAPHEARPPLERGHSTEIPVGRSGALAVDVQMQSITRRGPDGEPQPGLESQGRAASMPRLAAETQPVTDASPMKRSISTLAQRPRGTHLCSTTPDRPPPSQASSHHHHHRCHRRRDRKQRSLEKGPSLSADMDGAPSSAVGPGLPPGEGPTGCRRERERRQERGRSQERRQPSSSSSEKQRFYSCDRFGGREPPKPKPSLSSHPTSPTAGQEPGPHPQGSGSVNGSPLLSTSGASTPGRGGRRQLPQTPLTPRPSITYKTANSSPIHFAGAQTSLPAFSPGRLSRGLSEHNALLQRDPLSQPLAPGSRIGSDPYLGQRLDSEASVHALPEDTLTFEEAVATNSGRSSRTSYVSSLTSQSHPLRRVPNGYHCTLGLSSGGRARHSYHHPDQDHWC", "T1 sequence (Q02410 whole entry)": "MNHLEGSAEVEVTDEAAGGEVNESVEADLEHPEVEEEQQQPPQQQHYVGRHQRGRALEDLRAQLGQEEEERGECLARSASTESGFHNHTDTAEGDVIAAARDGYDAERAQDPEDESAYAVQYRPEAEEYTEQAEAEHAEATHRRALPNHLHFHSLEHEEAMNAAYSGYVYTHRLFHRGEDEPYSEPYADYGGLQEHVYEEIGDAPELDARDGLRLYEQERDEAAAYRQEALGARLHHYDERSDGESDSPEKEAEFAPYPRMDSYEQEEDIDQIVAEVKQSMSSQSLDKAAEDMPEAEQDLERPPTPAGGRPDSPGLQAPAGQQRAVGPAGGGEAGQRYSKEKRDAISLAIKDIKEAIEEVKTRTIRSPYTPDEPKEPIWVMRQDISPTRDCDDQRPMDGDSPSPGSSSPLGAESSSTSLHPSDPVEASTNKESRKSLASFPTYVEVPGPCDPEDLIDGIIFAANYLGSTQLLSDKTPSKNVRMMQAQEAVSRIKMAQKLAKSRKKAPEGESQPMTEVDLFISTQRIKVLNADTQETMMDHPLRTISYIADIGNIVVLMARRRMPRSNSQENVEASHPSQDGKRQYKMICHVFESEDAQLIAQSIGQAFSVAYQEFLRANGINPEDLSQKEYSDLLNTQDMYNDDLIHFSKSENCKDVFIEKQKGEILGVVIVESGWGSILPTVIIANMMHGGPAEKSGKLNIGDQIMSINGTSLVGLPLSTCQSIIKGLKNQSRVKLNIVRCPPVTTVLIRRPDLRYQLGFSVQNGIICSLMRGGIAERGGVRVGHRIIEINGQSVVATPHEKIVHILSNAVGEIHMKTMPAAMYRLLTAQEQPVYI", "test": "disruptors of Mint-PDZ/N-type channel peptide interaction – biochemical, HTRF, set 2, SAR follow-up (AID 434980)"}, "[6]": {"molecular_target": "T1, Voltage-gated N-type calcium channel alpha-1B subunit/Amyloid beta A4 precursor protein-binding family A member 1", "test": "disruptors of Mint-PDZ/N-type channel peptide interaction – biochemical, HTRF, SAR follow-up (AID 2489)"}, "[7]": {"molecular_target": "Kappa-type opioid receptor (Homo sapiens, UniProt P41145)", "sequence (P41145 whole entry)": "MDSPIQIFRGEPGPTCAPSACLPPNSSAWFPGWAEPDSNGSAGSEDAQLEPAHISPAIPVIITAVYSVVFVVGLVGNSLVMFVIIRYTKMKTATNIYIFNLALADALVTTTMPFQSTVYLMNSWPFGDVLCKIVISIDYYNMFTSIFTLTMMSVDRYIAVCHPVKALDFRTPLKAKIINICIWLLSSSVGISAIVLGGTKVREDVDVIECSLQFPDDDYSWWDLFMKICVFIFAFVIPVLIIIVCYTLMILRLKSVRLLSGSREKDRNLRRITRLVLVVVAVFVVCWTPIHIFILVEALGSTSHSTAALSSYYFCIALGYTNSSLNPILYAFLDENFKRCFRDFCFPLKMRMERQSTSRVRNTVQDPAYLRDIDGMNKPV", "test": "SAR analysis of small molecule agonists of the kappa opioid receptor via a luminescent beta-arrestin assay - Set 3. [Related pubchem assays (depositor defined):AID1777, AID1785, AID1786, AID1966, AID2133, AID2136, AID2284, AID2500]"}, "Coagulation factor XII": {"molecular_target": "T2, Coagulation factor XII (Homo sapiens, UniProt P00748)", "T2 sequence (P00748 whole entry)": "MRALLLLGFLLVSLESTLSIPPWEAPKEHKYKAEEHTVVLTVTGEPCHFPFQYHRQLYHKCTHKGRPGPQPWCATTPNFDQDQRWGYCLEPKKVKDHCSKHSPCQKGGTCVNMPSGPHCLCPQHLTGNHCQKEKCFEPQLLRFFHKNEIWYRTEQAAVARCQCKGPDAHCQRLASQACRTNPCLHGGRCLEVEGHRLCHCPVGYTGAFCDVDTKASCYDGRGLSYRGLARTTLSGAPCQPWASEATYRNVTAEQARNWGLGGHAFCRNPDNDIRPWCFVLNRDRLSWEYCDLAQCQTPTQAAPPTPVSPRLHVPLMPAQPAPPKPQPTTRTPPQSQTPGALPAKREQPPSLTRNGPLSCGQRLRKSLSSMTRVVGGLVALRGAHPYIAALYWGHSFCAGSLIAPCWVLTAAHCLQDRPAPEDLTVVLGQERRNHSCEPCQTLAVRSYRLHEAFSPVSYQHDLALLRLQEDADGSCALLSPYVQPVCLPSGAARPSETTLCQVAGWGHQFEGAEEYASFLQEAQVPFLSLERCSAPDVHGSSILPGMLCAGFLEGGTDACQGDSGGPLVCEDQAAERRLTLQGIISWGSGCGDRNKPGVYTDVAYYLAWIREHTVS"}}, "note": "Several values for one entry are separate records, joined by “and”; a condition that tells them apart may be missing. Equal values may be shown once. Activity calls are given as the source filed them.", "data": [{"smiles": "CC(C)(C)C(=O)c1cn(CC(=O)NCc2ccco2)c2ccccc12", "values": [{"measurement": "EC50", "setting": "[1]", "result": "14.9 µM (active)"}, {"measurement": "EC50", "setting": "[2]", "result": "15.9 µM (active)"}, {"measurement": "EC50", "setting": "H4", "result": "13.2 µM (active)"}, {"measurement": "IC50", "setting": "[3]", "result": "3.56 µM (active)"}, {"measurement": "IC50", "setting": "[4]", "result": "4.75 µM (active)"}]}, {"smiles": "COc1ccccc1NC(=O)COC(=O)c1cc(-c2ccco2)nc2ccccc12", "values": [{"measurement": "IC50", "setting": "SUMO E1/E2", "result": "16 µM (active) and 56.7 µM (active)"}, {"measurement": "IC50", "setting": "[5]", "result": "6.66 µM (active) and 12.5 µM (active)"}, {"measurement": "IC50", "setting": "[6]", "result": "21.5 µM (active) and > 56.8 µM (inactive)"}]}, {"smiles": "COc1ccc(CNC(=O)COC(=O)c2cc(-c3ccco3)nc3ccccc23)c(OC)c1", "values": [{"measurement": "IC50", "setting": "SUMO E1/E2", "result": "14.7 µM (active)"}, {"measurement": "IC50", "setting": "[5]", "result": "11.1 µM (active)"}, {"measurement": "IC50", "setting": "[6]", "result": "23 µM (active)"}]}, {"smiles": "O=C(c1ccccn1)N(Cc1cc2cc(Cl)ccc2[nH]c1=O)CC1CC1", "values": [{"measurement": "EC50", "setting": "[7]", "result": "> 20 µM (inactive)"}]}, {"smiles": "COC(=O)/C(=C/Nc1ccccc1)[N+](=O)[O-]", "values": [{"measurement": "IC50", "setting": "Coagulation factor XII", "result": "> 50 µM (inactive)"}]}]}
